From ChEMBL document CHEMBL6096668, “Design and functional studies of xylene-based cyclic mimetics of SOCS1 protein” (Eur J Med Chem, 2025) come the findings set out here.

pIC50, pKd: −log10 of the molar value. Numbered stars: 1 amine (or outer) side, 2 acyl side, 3 side chain; on linkers, the order of the positions; unused ones are H or OH. Bridge positions count the residues as written; N and C are the ends. Square brackets hold non-standard residues; d marks the D form. Peptide text beside a SMILES is read from it. * marks the point of attachment. 1Nal = N[C@@H](Cc1cccc2ccccc12)C(=O)O; TBMB = c1c(C[*:1])cc(C[*:3])cc1C[*:2]; Acm = CC(=O)NC*

Data set [1] concerns the target T1, Tyrosine-protein kinase JAK2 (Homo sapiens, UniProt O60674). Nature of the data set: Binding affinity to his-tagged JAK2 (826 to 1132 residues) (unknown origin) assessed as dissociation constant incubated for 30 mins by MST analysis.
For data set [2], the target named is T1, Tyrosine-protein kinase JAK2. Briefly: Inhibition of JAK2 (unknown origin) using srctide as substrate preincubated with compound for 1 hr followed by substrate addition and measured after 15 mins in presence of ATP by LC-MS analysis.
Data set [3] can be described thus: Stability of the compound in fetal bovine serum measured after 30 h by RP-HPLC analysis. The conditions noted are these: cattle.

Usually pKd stands for the negative decadic logarithm of the Kd, by convention in mol/L. A word on the pIC50: it is −log10 of the IC50, conventionally taken in molar units.

T1 sequence (O60674 whole entry, the tested form may be a part): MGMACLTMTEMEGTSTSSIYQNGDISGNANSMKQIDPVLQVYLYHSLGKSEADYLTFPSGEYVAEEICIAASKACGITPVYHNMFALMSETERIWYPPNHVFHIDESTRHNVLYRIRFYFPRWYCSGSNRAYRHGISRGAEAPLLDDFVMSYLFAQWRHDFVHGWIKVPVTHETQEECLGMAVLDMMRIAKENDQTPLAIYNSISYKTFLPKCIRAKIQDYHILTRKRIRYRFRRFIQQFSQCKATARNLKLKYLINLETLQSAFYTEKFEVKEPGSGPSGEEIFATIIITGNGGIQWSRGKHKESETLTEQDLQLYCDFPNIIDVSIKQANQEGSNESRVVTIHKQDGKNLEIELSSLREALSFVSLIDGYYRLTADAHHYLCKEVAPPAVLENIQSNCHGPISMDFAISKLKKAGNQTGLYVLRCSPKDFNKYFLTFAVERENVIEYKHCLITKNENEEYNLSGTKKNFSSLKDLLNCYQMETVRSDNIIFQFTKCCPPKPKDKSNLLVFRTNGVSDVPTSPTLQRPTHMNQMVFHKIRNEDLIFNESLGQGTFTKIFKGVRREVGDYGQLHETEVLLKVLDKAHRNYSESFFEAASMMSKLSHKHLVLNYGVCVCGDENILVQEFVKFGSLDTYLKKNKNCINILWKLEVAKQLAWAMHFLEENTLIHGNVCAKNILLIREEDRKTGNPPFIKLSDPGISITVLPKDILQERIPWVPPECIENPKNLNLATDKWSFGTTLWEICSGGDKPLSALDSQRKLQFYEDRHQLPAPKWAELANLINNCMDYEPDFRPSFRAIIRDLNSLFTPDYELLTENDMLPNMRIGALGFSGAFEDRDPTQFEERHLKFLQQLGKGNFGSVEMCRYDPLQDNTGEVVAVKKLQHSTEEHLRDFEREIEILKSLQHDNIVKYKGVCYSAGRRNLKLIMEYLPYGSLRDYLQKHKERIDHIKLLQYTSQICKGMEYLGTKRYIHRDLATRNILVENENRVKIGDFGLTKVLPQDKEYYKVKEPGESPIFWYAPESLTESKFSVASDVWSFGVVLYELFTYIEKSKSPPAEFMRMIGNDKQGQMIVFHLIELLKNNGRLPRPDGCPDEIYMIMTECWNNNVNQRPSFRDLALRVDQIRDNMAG

On to `CC(=O)NCSC[C@@H]1NC(=O)[C@H]([C@@H](C)O)NC(=O)[C@H](NC(C)=O)CSCc2cccc(c2)CSC[C@@H](C(=O)N[C@@H](Cc2cnc[nH]2)C(N)=O)NC(=O)[C@H](CCCNC(=N)N)NC(=O)[C@H](Cc2cccc3ccccc23)NC(=O)[C@H]([C@@H](C)O)NC(=O)[C@H](CCC(N)=O)NC(=O)[C@H](CCCNC(=N)N)NC1=O`, for which the pKd in data set [1] was 5.17. In data set [2], the pIC50 was 5.66.
The matching figures for `CC(=O)NCSC[C@@H]1NC(=O)[C@H]([C@@H](C)O)NC(=O)[C@@H](NC(C)=O)CSCc2cc3cc(c2)CSC[C@H](NC(=O)[C@H](CCCNC(=N)N)NC1=O)C(=O)N[C@@H]([C@@H](C)O)C(=O)N[C@@H](Cc1cccc2ccccc12)C(=O)N[C@@H](CCCNC(=N)N)C(=O)N[C@H](C(=O)N[C@@H](Cc1cnc[nH]1)C(N)=O)CSC3` (Ac-CTC(Acm)RCT[1Nal]RCH-NH2; linker 1-5-9 via TBMB): 3.89 and 4.00.
As for `CC(=O)NCSC[C@@H]1NC(=O)[C@H]([C@@H](C)O)NC(=O)[C@@H](NC(C)=O)CC(=O)NCCCC[C@@H](C(=O)N[C@@H](Cc2cnc[nH]2)C(N)=O)NC(=O)[C@H](CCCNC(=N)N)NC(=O)[C@H](Cc2cccc3ccccc23)NC(=O)[C@H]([C@@H](C)O)NC(=O)[C@H](CCC(N)=O)NC(=O)[C@H](CCCNC(=N)N)NC1=O` (Ac-DTC(Acm)RQT[1Nal]RKH-NH2; lactam 1-9), the Stability entry in data set [3] is “Stable”.
Turning to `COc1cc(/C=C/C(=O)CC(=O)/C=C/c2ccc(O)c(OC)c2)ccc1O` [CURCUMIN], in data set [1], the pKd is ~4.05.
